We go through ten compounds from PMC7447632, “Highly functionalized β-lactams and 2-ketopiperazines as TRPM8 antagonists with antiallodynic activity” (Scientific Reports, 2020).

SMILES strings stand for the structures.

One test relates to TRPM8. Conditions: cited from earlier work; for IC50: Figure 1, literature values; for EC50: Figure 1, literature value.
For the next test, the target named is T1, hTRPV1 channels (Homo sapiens, UniProt Q8NER1).
T1 construct: expressed in transfected cells; host or cells: HEK (stably transfected)
T1 sequence (Q8NER1 whole entry): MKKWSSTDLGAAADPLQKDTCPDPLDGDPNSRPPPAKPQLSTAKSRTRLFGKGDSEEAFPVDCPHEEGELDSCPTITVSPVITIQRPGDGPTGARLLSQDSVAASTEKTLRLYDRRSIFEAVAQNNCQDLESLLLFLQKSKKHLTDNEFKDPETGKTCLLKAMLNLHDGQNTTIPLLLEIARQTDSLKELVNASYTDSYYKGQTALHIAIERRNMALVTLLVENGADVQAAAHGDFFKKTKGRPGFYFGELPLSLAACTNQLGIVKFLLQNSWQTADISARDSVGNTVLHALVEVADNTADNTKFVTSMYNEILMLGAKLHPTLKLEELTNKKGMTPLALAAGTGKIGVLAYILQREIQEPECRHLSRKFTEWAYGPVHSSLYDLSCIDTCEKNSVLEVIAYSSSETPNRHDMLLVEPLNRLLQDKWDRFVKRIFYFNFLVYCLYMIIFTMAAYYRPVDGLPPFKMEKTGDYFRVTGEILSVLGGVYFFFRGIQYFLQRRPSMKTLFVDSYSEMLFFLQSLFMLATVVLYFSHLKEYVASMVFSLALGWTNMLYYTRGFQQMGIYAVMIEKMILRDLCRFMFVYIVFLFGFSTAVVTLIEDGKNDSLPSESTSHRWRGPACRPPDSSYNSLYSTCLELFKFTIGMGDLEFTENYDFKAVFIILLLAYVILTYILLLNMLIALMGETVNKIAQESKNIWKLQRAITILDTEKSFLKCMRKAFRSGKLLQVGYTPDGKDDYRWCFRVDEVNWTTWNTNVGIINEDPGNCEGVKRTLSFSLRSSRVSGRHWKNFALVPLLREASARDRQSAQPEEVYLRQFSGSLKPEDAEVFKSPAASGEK
Description: Ca2+ microfluorometry in HEK cells expressing hTRPV1 (capsaicin). As to conditions: 1 µM capsaicin; for TRPV1 Blockade (%) 5 µM: 5 µM compound; for TRPV1 Blockade (%) 50 µM: 50 µM compound. The class given is cell-based. As to the method: β-Lactam and 2-ketopiperazine derivatives were also assayed for their activity in cell expressing hTRPV1 channels. No significant antagonist activity was measured for any derivatives within both chemotypes (Supplementary Tables S1, S2, and Fig. S3), indicating their selectivity for TRPM8 channels.
(§1) Human embryonic kidney cell line (HEK) stably transfected with rTRPM8 or h-TRPV1 were used as previously described. Briefly, cells were seeded in 96-well plates at a cell density of 30,000 cells 2 days before treatment. Buffer used was HBBS (in mM): 138 NaCl, 5.33 KCl, 1.26 CaCl2, 0.5 MgCl-6H2O, 0.4 MgSO4-7H2O, 4 NaHCO3 0.44 KH2PO4, 0.3 Na2HPO4, pH 7.4. The day of treatment the medium was replaced with 100 µL of the dye loading solution Fluo-4 NW supplemented with probenecid 2.5 mM. After incubation, plates were transferred to a fluorescence plate reader (Polastar BMG). In the experimental protocol, the baseline fluorescence was recorded ([…]) for 3 cycles. After, vehicle, compound at different concentrations and the corresponding antagonist, 10 µM AMTB for TRPM8 or 10 µM Ruthenium Red for TRPV1 were added to the well. Fluorescence intensity was recorded during 7 cycles more. Finally, the agonist 100 µM menthol for TRPM8 or 1 µM capsaicin for TRPV1 was added and fluorescence intensity was recorded during 10 cycles more.
Table S1. Activity at hTRPV1 of β–lactams derived from phenylalaninol conjugates
Compd. Isomer Isomer TRPV1 Blockade (%)
Table S2. Activity at hTRPV1 of 2-ketopiperazines derived from phenylalaninol

Test [1] has as its system A549 (lung carcinoma, NSCLC). Description: SRB cytotoxicity assay, A549. As to conditions: 72 h, SRB; for TGI A549: total growth inhibition; for TGI A549 / CC50: unit inferred; for GI50 / CC50: Homo sapiens, A549; for CC50: read-out: LC50 A549. The class given is cell-based. Here is the method: (§2) Human tumor cell lines used in this study were purchased from the ATCC. A-549 (CCL-185), lung carcinoma; HT-29 (HTB-38), colorectal adenocarcinoma; MDA-MB-231 (HTB-26), breast adenocarcinoma; PSN1, pancreas adenocarcinoma.
(§3) All cell lines were maintained in DMEM (Dulbecco’s Modified Eagle's Medium) culture medium supplemented with 10% FBS (Fetal Bovine Serum), 100 Units/mL penicillin/streptomycin at 37 °C, 5% CO2 and 95% humidity.
(§4) Triplicate cultures were incubated for 72 h in the presence or absence of test compounds in dose–response curves (10 concentrations, typically ranging from 10 to 0.0026 µg/mL). A colorimetric assay using sulforhodamine B (SRB) was adapted for quantitative measurement of cell growth and cytotoxicity. A more detailed information on this assay is provides in the supplementary information. GI50 is the compound concentration that produces 50% inhibition on cell growth as compared to control cells.
(§5) In vitro bioassays for the detection of antitumor activity
(§6) The aim of this assay is to evaluate the in vitro cytostatic (ability to delay or arrest tumor cell growth) or cytotoxic (ability to kill tumor cells) activity of the samples […]
(§7) Name Nº ATCC Species Tissue Characteristics
(§8) A549 CCL-185 human lung lung carcinoma (NSCLC)
(§9) HT29 HTB-38 human colon colorectal adenocarcinoma
(§10) MDA-MB-231 HTB-26 human breast breast adenocarcinoma
(§11) PSN1 CRM-CRL-3211 human pancreas pancreas adenocarcinoma […]
(§12) A colorimetric assay, using Sulforhodamine B (SRB) reaction has been adapted to provide a quantitative measurement of cell growth and viability (following the technique described by Skehan et al. J. Natl. Cancer Inst. 1990, 82, 1107-1112 […]
(§13) This form of assay employs 96-well cell culture microplates following the standards of the American National Standards Institute and the Society for Laboratory […]
(§14) used in this study were obtained from the American Type Culture Collection (ATCC) and derive from different types of human cancer.
(§15) A549, HT29, MDA-MB-231 and PSN1 cells were maintained in Dulbecco’s
(§16) Modified Eagle Medium (DMEM) supplemented with 10% Fetal Bovine Serum (FBS), 2mM L-glutamine, 100 U/mL penicillin, and 100 U/mL streptomycin at 37 °C, 5% CO2 and 98% humidity. For the experiments, cells were harvested from subconfluent cultures using trypsinization and resuspended in fresh medium before counting and […]
(§17) A549, HT29, MDA-MB-231 and PSN1 cells were seeded in 96 well microtiter plates, at 5000 cells per well in aliquots of 150 µL, and allowed to attach to the plate surface for 18 hours (overnight) in drug free medium. After that, one control (untreated) plate of each cell line was fixed (as described below) and used for time zero reference value. Culture plates were then treated with test compounds (50 µL aliquots of 4X stock […]
(§18) solutions in complete culture medium plus 4% DMSO) using ten 2/5 serial dilutions (concentrations ranging from 10 to 0.003 µg/mL) and triplicate cultures (1% final concentration in DMSO). After 72 hours treatment, the antitumor effect was measured by using the SRB methodology: Briefly, cells were washed twice with PBS, fixed for 15 min in 1% glutaraldehyde solution at room temperature, rinsed twice in PBS, and stained in 0.4% SRB solution for 30 min at room temperature. Cells were then rinsed several times with 1% acetic acid solution and air-dried at room temperature. SRB was then extracted in 10 mM trizma base solution and the absorbance measured in an automated spectrophotometric plate reader at 490 nm.
(§19) Effects on cell growth and survival were estimated by applying the NCI algorithm (Boyd MR and Paull KD. Drug Dev. Res. 1995, 34, 91-109, DOI:10.1002/ddr.430340203). The values obtained in triplicate cultures were fitted by nonlinear regression to a four-parameters logistic curve by nonlinear regression analysis. . Using the absorbance measurements [time zero, (Tz), control growth, (C), and test growth in the presence of drug at the ten concentration levels (Ti)], the […]
(In general: In SRB staining, fixed cells bind dye roughly in proportion to their protein.)

The target of the next test is T2, rat TRPM8 channel (Rattus norvegicus, UniProt Q8R455).
T2 construct: expressed in transfected cells; host or cells: HEK293 (stably transfected)
T2 sequence (Q8R455 whole entry): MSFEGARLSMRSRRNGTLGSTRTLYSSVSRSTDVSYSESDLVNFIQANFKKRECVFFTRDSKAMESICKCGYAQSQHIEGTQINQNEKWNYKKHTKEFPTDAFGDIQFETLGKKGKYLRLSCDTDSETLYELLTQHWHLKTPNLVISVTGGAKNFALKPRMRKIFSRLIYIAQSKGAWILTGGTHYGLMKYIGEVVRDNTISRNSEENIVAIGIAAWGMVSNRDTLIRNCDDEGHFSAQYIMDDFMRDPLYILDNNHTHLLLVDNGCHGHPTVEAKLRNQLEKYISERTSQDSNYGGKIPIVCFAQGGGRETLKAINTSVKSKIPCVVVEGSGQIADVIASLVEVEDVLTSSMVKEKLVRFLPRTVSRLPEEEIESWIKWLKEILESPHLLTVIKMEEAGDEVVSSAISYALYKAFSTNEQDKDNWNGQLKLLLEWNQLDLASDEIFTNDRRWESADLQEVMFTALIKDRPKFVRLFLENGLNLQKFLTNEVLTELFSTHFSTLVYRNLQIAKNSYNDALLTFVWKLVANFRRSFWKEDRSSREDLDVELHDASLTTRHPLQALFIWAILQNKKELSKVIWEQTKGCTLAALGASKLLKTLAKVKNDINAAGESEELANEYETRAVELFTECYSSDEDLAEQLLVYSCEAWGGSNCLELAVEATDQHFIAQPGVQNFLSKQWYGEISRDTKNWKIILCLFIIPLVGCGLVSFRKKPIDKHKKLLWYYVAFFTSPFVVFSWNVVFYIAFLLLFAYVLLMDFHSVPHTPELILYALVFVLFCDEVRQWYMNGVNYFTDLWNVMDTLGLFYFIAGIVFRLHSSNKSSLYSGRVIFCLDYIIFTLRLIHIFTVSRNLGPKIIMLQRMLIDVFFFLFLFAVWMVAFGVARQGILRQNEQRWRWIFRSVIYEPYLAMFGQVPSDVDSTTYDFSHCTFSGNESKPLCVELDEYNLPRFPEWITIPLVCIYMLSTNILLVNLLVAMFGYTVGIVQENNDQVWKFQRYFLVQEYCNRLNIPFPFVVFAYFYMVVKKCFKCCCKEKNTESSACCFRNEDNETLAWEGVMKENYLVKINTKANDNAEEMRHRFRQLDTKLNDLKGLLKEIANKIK
Description: Ca2+ microfluorometry, menthol-induced Ca2+ influx in HEK293 cells expressing rat TRPM8. The class given is cell-based. As to conditions: 100 µM menthol, HEK-rTRPM8; for % Blockade 5 µM: 5 µM compound; for % Blockade 50 µM: 50 µM compound; for IC50: Ca2+ microfluorometry. Here is the method:
The ability to inhibit menthol-induced Ca^2+ intracellular influx into the cytosol on HEK293 cells heterologously expressing the rat TRPM8 channel was measured and compared to that of AMTB, a well-known TRPM8 antagonist. Representative recordings of fluorescence obtained in microfluorometry experiments for selected compounds are in Supplementary Fig. S3.
as §1
The degree of inhibition of TRPM8 channel gating was calculated by comparison to calcium increase signal elicited by test substances and menthol at 100 µM. Decrease of menthol signal was expressed as percentage of inhibition (%). All data are expressed as mean ± standard deviation (SD). Each condition was assessed by triplicate (n = 3) in 3 independent experiments (N = 3). Z-factor was calculated in each assay using the following equation: […]. In all the experiments Z-factor was ≥ 0.5. To calculate IC50, normalized responses (%) versus log [µM] were adjusted to a non-linear fit with variable slope, a four-parameter dose–response curve following curve Y = 100/(1 + 10^((Log IC50-X)*HillSlope)) where […].

The test system of test [2] is HT29 (colorectal adenocarcinoma). The experiment in a line: SRB cytotoxicity assay, HT29. The class given is cell-based. Conditions: 72 h, SRB; for TGI HT29: total growth inhibition; for TGI HT29 / CC50: unit inferred; for GI50 / CC50: Homo sapiens, HT-29; for CC50: read-out: LC50 HT29. As to the method:
as §2, §3, §4, §5, §6, §7, §8, §9, §10, §11, §12, §13, §14, §15, §16, §17, §18, §19

Test [3] relates to MDA-MB-231 (breast adenocarcinoma). Description: SRB cytotoxicity assay, MDA-MB-231. As to conditions: 72 h, SRB; for TGI MDA-MB-231: total growth inhibition; for TGI MDA-MB-231 / CC50: unit inferred; for GI50 / CC50: Homo sapiens, MDA-MB-231; for CC50: read-out: LC50 MDA-MB-231. The test is classed as cell-based. Here is the method: as §2, §3, §4, §5, §6, §7, §8, §9, §10, §11, §12, §13, §14, §15, §16, §17, §18, §19

Test [4] has as its system PSN1 (pancreas adenocarcinoma). Description: SRB cytotoxicity assay, PSN1. The class given is cell-based. Conditions: 72 h, SRB; for TGI PSN1: total growth inhibition; for TGI PSN1 / CC50: unit inferred; for GI50 / CC50: Homo sapiens, PSN1; for CC50: read-out: LC50 PSN1. Here is the method: as §2, §3, §4, §5, §6, §7, §8, §9, §10, §11, §12, §13, §14, §15, §16, §17, §18, §19

As to `Cc1cccc(COc2ccccc2C(=O)N(CCCN)Cc2cccs2)c1` [AMTB], the IC50 (in general, the point on the concentration scale where inhibition reaches its midpoint) with TRPM8 was 160 nM.

On to `COC(=O)[C@H](Cc1c[nH]c2ccccc12)N(Cc1ccccc1)Cc1ccccc1` [Bn2-Trp-OMe], for which the IC50 with TRPM8 is 0.2 nM.

For `O=C(OCc1ccccc1)C(Cc1ccccc1)N1C[C@H](Cc2ccccc2)N(C(=O)OCc2ccccc2)CC1=O` (stereo partly drawn) [Compound 13ab], on hTRPV1 channels, the “TRPV1 Blockade (%) 5 µM” value is 7.2±3.8% and the “TRPV1 Blockade (%) 50 µM” value is 8.1±3.4%. Also, in test [1], the TGI A549 was above 17.8 µM, the GI50 (usually the concentration at which growth is held to half of that of the control) was above 17.8 µM and the CC50 was above 17.8 µM. In addition, on rat TRPM8 channel, the “% Blockade 5 µM” value came to 48.9 ± 6.2% and the “% Blockade 50 µM” value was found to be 102.1 ± 7.7%. In test [2], the TGI HT29 is above 17.8 µM, the GI50 was above 17.8 µM and the CC50 was above 17.8 µM. Moreover, in test [3], the TGI MDA-MB-231 was above 17.8 µM, the GI50 is above 17.8 µM and the CC50 is above 17.8 µM. Besides, in test [4], the TGI PSN1 was above 17.8 µM, the GI50 was above 17.8 µM and the CC50 is above 17.8 µM.

For the compound `O=C(OCc1ccccc1)C(Cc1ccccc1)N1C[C@@H](Cc2ccccc2)N(C(=O)OCc2ccccc2)CC1=O` (stereo partly drawn) [Compound 15ab], on hTRPV1 channels, the “TRPV1 Blockade (%) 5 µM” value amounted to 6.3±2.1% and the “TRPV1 Blockade (%) 50 µM” value amounted to 7.8±4.1%. For the same compound, in test [1], the TGI A549 was above 17.8 µM, the GI50 is above 17.8 µM and the CC50 was above 17.8 µM. Besides, at rat TRPM8 channel, the “% Blockade 5 µM” value amounted to 101.4 ± 6.1%, the “% Blockade 50 µM” value amounted to 106 ± 5.06% and the concentration for half-maximal inhibition (IC50) is 1800 ± 1900 nM. Also, in test [2], the TGI HT29 is above 17.8 µM, the GI50 was above 17.8 µM and the CC50 is above 17.8 µM. Besides, in test [3], the TGI MDA-MB-231 is above 17.8 µM, the GI50 is above 17.8 µM and the CC50 is above 17.8 µM. In addition, in test [4], the TGI PSN1 was above 17.8 µM, the GI50 was 6.4 µM and the CC50 is above 17.8 µM.

For `C[C@@H]1C(=O)N(C(Cc2ccccc2)C(=O)OCc2ccccc2)C[C@@H](Cc2ccccc2)N1C(=O)OCc1ccccc1` (stereo partly drawn) [Compound 30ab], on hTRPV1 channels, the “TRPV1 Blockade (%) 5 µM” value is reported as 9.2±2.1% and the “TRPV1 Blockade (%) 50 µM” value is listed as 13.9±4.8%. In test [1], the TGI A549 is above 17.3 µM, growth was halved (GI50) at 12.7 µM and the CC50 was above 17.3 µM. On rat TRPM8 channel, the “% Blockade 5 µM” value is 101.7 ± 5.3%, the “% Blockade 50 µM” value is reported as 101.2 ± 11.4% and inhibition was half-maximal at 160 nM (IC50). Further, in test [2], the TGI HT29 was above 17.3 µM, the GI50 was above 17.3 µM and the CC50 was above 17.3 µM. Moreover, in test [3], the TGI MDA-MB-231 is above 17.3 µM, the GI50 is above 17.3 µM and the CC50 was above 17.3 µM. In test [4], the TGI PSN1 was above 17.3 µM, growth was halved (GI50) at 8.3 µM and the CC50 is above 17.3 µM.

Take `O=C1NC(c2cccc([N+](=O)[O-])c2)=CCN1c1ccccc1O` [Icilin]: the EC50 (as a rule, the concentration giving half of the maximal effect) in the test with TRPM8 is 0.005 µM.

Take `C[C@H](c1cc(F)cc(F)c1)N(C(=O)c1ccccc1)[C@@H](C(N)=O)c1ccccc1` [KPR-2579]: in the test on TRPM8, the IC50 was 8 nM.

Consider `CC1CCC(C(C)C)C(O)C1` (stereo not drawn) [Menthol], for which, in the test with TRPM8, the EC50 was 200 to 500 µM.

Consider `C[C@H](c1ccc(F)cc1)N(Cc1cccc(C(=O)O)c1)C(=O)c1cnc2ccccc2c1` [PF-05105679], for which the IC50 in the test on TRPM8 is 181 nM.

In the case of `O=C(O)c1ccc(S(=O)(=O)N(Cc2ccc(OC(F)(F)F)cc2)c2ncc(C(F)(F)F)cc2Cl)cc1` [RQ 00203078], in the test on TRPM8, the IC50 is 8.3 nM.
